Assay results from patent US6054315A, “Method for making activated neutrophils recognizable to macrophages” (The Board of Regents of the University of Oklahoma, priority 1997, dated 2000).

Key:
[1] = target: T1, recombinant galectin-1 (Cys at the 2nd residue converted to Ser) (Cricetulus griseus, UniProt P48538, C3S); assay: Binding of biotinylated galectin-1 to activated neutrophils and desialylated HL-60 cells (flow cytometry), inhibition by sugars; format: cell-based, hamster; conditions: sugar at 10 mM; galectin-1 10 μg/ml, 30 minutes on ice
T1 construct: made in house; host or cells: E. coli (for the recombinant CHO galectin-1)
T1 sequence (P48538 whole entry C3S): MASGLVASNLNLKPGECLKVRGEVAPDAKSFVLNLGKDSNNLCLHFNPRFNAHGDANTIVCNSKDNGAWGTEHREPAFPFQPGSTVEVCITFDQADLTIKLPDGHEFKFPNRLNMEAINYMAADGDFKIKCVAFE
Excerpt: Isolated neutrophils were activated by treatment with PMA and HL-60 cells were desialylated by treatment with neuraminidase. Heparinized blood was obtained from normal donors. Neutrophils were isolated by dextran sedimentation, hypotonic lysis, and density gradient centrifugation on Histopaque-1077 (Sigma), as described [G. A. Zimmerman, T. M. McIntyre, and S. M. Prescott, J. Clin. Invest., 76:2235, 1985]. Typically, the polymorphonuclear cells were >90% neutrophils by Wright-Giemsa staining and >90% CD16^+ as assessed by flow cytometry. Neutrophils were activated by treatment with phorbol myristate acetate (PMA) (Sigma) (0.5 μM) for 20 minutes at 37° C. in RPMI containing 20% FCS (0.5 ml). HL-60 cells were routinely maintained in RPMI containing 20% FCS. Desialylated HL-60 cells were prepared by treating 3×10^7 cells with Arthrobacter ureafaciens neuraminidase (Sigma) (100 mU) in 500 μl of RPMI containing 20% FCS for 1 hour at 37° C. […] The washed cells were incubated with FITC-streptavidin (1:100 dilution) (Sigma), washed once with PBS, and analyzed by flow cytometry. […] "Unstained" indicates fluorescence of either resting neutrophils or HL-60 cells incubated in the absence of either MAL or galectin-1. "Control" indicates fluorescence of either activated neutrophils or desialylated HL-60 cells incubated with galectin-1 in the presence of 10 mM lactose. […]

[2] = target: T1, recombinant galectin-1 (Cys at the 2nd residue converted to Ser); assay: Galectin-1-induced apoptosis of activated neutrophils and desialylated HL-60 cells (annexin V), inhibition by sugars; format: cell-based, hamster; conditions: galectin-1 10 μM; lactose 10 mM in the method
Experimental: Resting or activated neutrophils (3×10^6 cells) were treated with galectin-1 (10 μM) in 0.5 ml of HBSS (lacking Ca^2+ /Mg^2+ and containing 0.5% human albumin) for 90 minutes at 37° C. in the presence or absence of 10 mM lactose. HL-60 cells and desialylated HL-60 cells (3×10^6 cells/0.5 ml) were treated with galectin-1 (10 μM) for 20 hours at 37° C. in the presence or absence of 10 mM lactose. At the end of the incubations all cells were treated with 10 mM lactose in PBS to disaggregate the cells. […]
(§1) Annexin V is a protein that recognizes phosphatidyl serine (PS) and is a convenient marker for apoptosis of neutrophils and other cells (S. J. Martin, C. P. Reutelingsperger, A. J. McGahon, J. A. Rader, R. C. van Schie, D. M. LaFace and D. R. Green D R, J. Exp. Med., 182:1545, 1995; C. H. Homburg, M. de Haas, A. E. von dem Borne, A. J. Verhoeven, C. P. Reutelingsperger and D. Roos, Blood, 85:532, 1995; I. Vermes, C. Haanen, H. Steffens-Nakken, and C. Reutelingsperger, J. Immunol. Methods, 184:39, 1995; Z. Darzynkiewicz, G. Juan, X. Li, W. Gorczyca, T. Murakami, and F. Traganos, Cytometry 27:1, 1997). […] Within 90 minutes following treatment with 10 μM galectin-1, 36% of the activated neutrophils undergo apoptosis, as determined by their staining with annexin V (FIG. 2A). […]

[3] = target: T1, recombinant galectin-1 (Cys at the 2nd residue converted to Ser); assay: Galectin-1 agglutination of activated neutrophils and desialylated HL-60 cells, inhibition by sugars; format: cell-based, hamster
Experimental: In all cases cell binding of galectin-1 to cells was inhibited by 10 mM lactose, a known inhibitor of galectin-1 (FIG. 1), but not by 10 mM maltose, an isomeric, non-inhibitory analog (data not shown). We noted that both activated neutrophils and desialylated HL-60 cells are strongly agglutinated by galectin-1, whereas resting neutrophils and HL-60 cells are not appreciably agglutinated, which further underscores the profound differences in surface phenotypes between resting and activated neutrophils.
as §1

[4] = target: T2, hamster galectin-1 mutant C2S-Gal-1 (Cys-2 to Ser) (Cricetulus griseus, UniProt P48538, C3S); assay: Equilibrium dialysis, binding of N-acetyllactosamine; conditions: stated as similar affinity to the mutants
T2 construct: made in house; host or cells: E. coli (for the recombinant CHO galectin-1)
T2 sequence (P48538 whole entry C3S): as above
Experimental: (§2) To investigate whether dimerization of the galectin-1 is required to induce apoptosis, mutated forms of galectin-1 were prepared. Recombinant hamster galectin-1, which is highly homologous in sequence with bovine and human galectin-1 with 100% identity at the N- and C-termini positions was used. The protein was prepared as described in Cho and Cummings, 1995b, J. Biol. Chem., 270:5198-5206, ibid, J. Biolchem, 270:5207, 1995. This protein (monomeric or dimeric) contains a stabilizing mutation in which Cys at the 2nd residue was converted to Ser.
(§3) Specific mutations were created in the N- and C-termini of hamster galectin-1, as indicated in FIG. 3 and as described in further detail in Cho and Cummings, Biochemistry, 35:13081, 1996, which is hereby incorporated by reference herein in its entirety. C2S-Gal-1 contains a single replacement of Cys-2 to Ser. V5D-Gal-1 contains a single mutation of Val-5 to Asp. N-Gal-1 contains disruptions of three hydrophobic amino acids at the N-terminus. We also made another mutant construct, termed N/C-Gal-1, which contained the amino terminal changes of N-Gal-1 in addition to multiple changes in specific hydrophobic amino acids at the C-terminus (data not shown). All mutants, except for C2S-Gal-1, behaved as monomers in size exclusion HPLC and native gel electrophoresis. C2S-Gal-1 was indistinguishable from the native lectin in its ability to undergo monomer-dimer equilibrium and in its carbohydrate-binding affinity. […] However, in equilibrium dialysis N-Gal-1 and V5D-Gal-1 bound N-acetyllactosamine with similar affinity (Kd 90 μM) to that of the C2S-Gal-1 and the native lectin. […] N/C-Gal-1 was non-functional.

[5] = target: T3, hamster galectin-1 mutant N-Gal-1 (monomeric; disruptions of three hydrophobic amino acids at the N-terminus) (Cricetulus griseus, UniProt P48538, A7S/C3S/L5Q/V6D); assay: as above
T3 construct: made in house; host or cells: E. coli (for the recombinant CHO galectin-1)
T3 sequence (P48538 2-135 C3S/L5Q/V6D/A7S limits assumed): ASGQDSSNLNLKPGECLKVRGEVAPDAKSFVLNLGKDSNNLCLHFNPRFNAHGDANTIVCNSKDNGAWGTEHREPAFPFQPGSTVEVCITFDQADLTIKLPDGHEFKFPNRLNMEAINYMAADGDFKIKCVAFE
Experimental: as §2, §3

[6] = target: T4, hamster galectin-1 mutant V5D-Gal-1 (Val-5 to Asp) (Cricetulus griseus, UniProt P48538, V6D); assay: as above
T4 construct: made in house; host or cells: E. coli (for the recombinant CHO galectin-1)
T4 sequence (P48538 whole entry V6D): as the sequence (P48538 whole entry C3S) above, with S3C, V6D counted along it
Experimental: as §2, §3

[7] = target: native galectin-1 (native lectin) (Cricetulus griseus, UniProt P48538); assay: as above; set-up: species or system hamster; conditions: stated as similar affinity to the mutants
Sequence of native galectin-1 (native lectin) (P48538 2-135): as the sequence (P48538 2-135 C3S/L5Q/V6D/A7S limits assumed) above, with S2C, Q4L, D5V, S6A counted along it
Experimental: as §2
Specific mutations were created in the N- and C-termini of hamster galectin-1, as indicated in FIG. 3 and as described in further detail in Cho and Cummings, Biochemistry, 35:13081, 1996, which is hereby incorporated by reference herein in its entirety. C2S-Gal-1 contains a single replacement of Cys-2 to Ser. V5D-Gal-1 contains a single mutation of Val-5 to Asp. N-Gal-1 contains disruptions of three hydrophobic amino acids at the N-terminus. We also made another mutant construct, termed N/C-Gal-1, which contained the amino terminal changes of N-Gal-1 in addition to multiple changes in specific hydrophobic amino acids at the C-terminus (data not shown). All mutants, except for C2S-Gal-1, behaved as monomers in size exclusion HPLC and native gel electrophoresis. […]

Row | inhibition of binding of galectin-1 to cells [1] | inhibition of apoptosis-inducing activity of galectin-1 [2] | inhibition of cell agglutinating activity of galectin-1 [3] | Kd [4] [µM] | Kd [5] [µM] | Kd [6] [µM] | Kd [7] [µM] | SMILES
1 | not | not | not |  |  |  |  | OC[C@H]1O[C@H](O[C@H]2[C@H](O)[C@@H](O)[C@H](O)O[C@@H]2CO)[C@H](O)[C@@H](O)[C@@H]1O [maltose]
2 | inhibited | inhibited | inhibited |  |  |  |  | OC[C@H]1O[C@@H](O[C@H]2[C@H](O)[C@@H](O)C(O)O[C@@H]2CO)[C@H](O)[C@@H](O)[C@H]1O (stereo partly shown) [lactose]
3 |  |  |  | ~90 | 90 | 90 | ~90 | CC(=O)N[C@H]1C(O)O[C@H](CO)[C@@H](O[C@@H]2O[C@H](CO)[C@H](O)[C@H](O)[C@H]2O)[C@@H]1O (stereo partly shown) [N-acetyllactosamine]
